Tests used:
hERG potassium channel = target: T1, hERG potassium channel (Homo sapiens, UniProt Q12809); test: hERG whole cell patch clamp, tail current inhibition in HEK-293 cells; type: cell-based; conditions: tail current at −40 mV, room temperature; for inhibition at 3 µM: human, pH 7.4, 3 μM, read-out: hERG Inhibition, % inhib. @ 3 μM
T1 construct: expressed in transfected cells; host or cells: HEK-293 cells, BacMam viral expression system
Experimental: The comparison was carried out as follows. The hERG potassium channels were transiently expressed in HEK-293 cells using the Bacmam viral expression system (Kost et al, 2000: Pfohl et al, 2001). The HEK-293 cells were maintained in cell media comprised of D-MEM/F12, 10% fetal bovine serum, penicillin G sodium 100 units/mL, and streptomycin sulfate 100 μg/mL. Cells were grown to confluency in flasks and were rinsed once with PBS prior to passage. The flasks were incubated with VERSENE (EDTA) 1:5000 for 5 minutes at 37° C. to detach the cells from the flasks. Cells used in electrophysiology experiments were plated on glass coverslips and transfected 24 to 72 hours prior to use.
hERG channels were studied using the whole cell mode of the patch clamp technique (Hamill et al., 1981). The pipette solution contained 145 mM K+Aspartate, 11 mM EGTA, 5 mM NaCl, 5 mM MgATP, 5 mM HEPES, pH 7.4, and the bath solution contained 145 mM NaCl, 4 mM KCl, 2 mM CaCl2, 1 mM MgCl2, 10 mM HEPES, 10 mM d-glucose pH 7.4. To measure drug effects, the cells were held at −80 mV, then stepped to +20 mV for 400 ms followed by a second pulse to −40 mV so that the outward tail current characteristic of hERG could be measured. […] This pulse protocol was repeated at ten-second intervals during the superfusion of the test article diluted in the bath solution. The inhibition of hERG was determined by measuring the peak amplitude of the tail currents at −40 mV before and after compound application. The half-maximal inhibitory concentration (IC50) was determined from a curve fit of Hill equation to the data points. […] All experiments were conducted at room temperature (approximately 25° C.).

MCH R1 = target: T2, MCH R1 (Homo sapiens, UniProt Q99705); test: functional antagonist assay of MCH R1 (elkgal4-luc+ reporter gene, CHO cells, inhibition of MCH EC80 response); type: cell-based; conditions: MCH1R-elkgal4-luc+ CHO cells, read-out: MCH R1 pIC50 (converted)
T2 construct: expressed in transfected cells; host or cells: CHO cells stably expressing elkgal4-luc+ reporter gene (CHO-K1, ATCC)
T2 sequence (Q99705 whole entry, the tested form may be a part): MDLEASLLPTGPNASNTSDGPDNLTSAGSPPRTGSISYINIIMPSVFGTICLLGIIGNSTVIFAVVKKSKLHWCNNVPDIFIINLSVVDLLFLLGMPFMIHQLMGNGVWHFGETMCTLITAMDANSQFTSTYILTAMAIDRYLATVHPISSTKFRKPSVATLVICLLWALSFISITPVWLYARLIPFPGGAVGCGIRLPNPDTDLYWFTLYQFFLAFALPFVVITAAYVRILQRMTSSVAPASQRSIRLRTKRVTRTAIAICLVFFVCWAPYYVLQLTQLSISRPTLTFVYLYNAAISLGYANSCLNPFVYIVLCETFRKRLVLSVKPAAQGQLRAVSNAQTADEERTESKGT
From the text: The activity of the compounds used in this invention may be assessed in a functional assay of MCH R1 as follows:
Black, 96-well, tissue culture-treated plates (#3904) were obtained from Corning Costar, (Cambridge, Mass.), LucPlus™ Luciferase Reporter Gene Assay Kit (# 6016969) was from Packard (Meriden, Conn.), plate seals (#097-05-00006) were from Beckman/Sagian (Fullerton, Calif.). DMEM/F12 medium (#11039-021), fetal bovine serum (# 16140-071), L-glutamine (#25030-081), 0.05% trypsin (# 25300-054), G418 (#10131-035) and dPBS (#4190-144) were obtained from Gibco BRL (Gaithersburg, Md.). […]
CHO cells, stably expressing an elkgal4-luc^+ reporter gene (host) were transfected by electroporation with the human melanin-concentrating hormone one receptor. […] Plates were sealed and subjected to dark adaptation at room temperature for 10 minutes before luciferase activity was quantitated on a TopCount™ microplate scintillation counter (Packard) using 3 seconds/well count time. The ability of the antagonist to inhibit the MCH EC80 response was quantified by non-linear regression analysis using a curve-fitting program based in Microsoft ExCel. Specificity of the MCH R1 response was determined using the same protocol by measuring the ability of said antagonists to inhibit an EC80 thrombin response (endogenous) in the host cells.

T1 sequence (Q12809 whole entry): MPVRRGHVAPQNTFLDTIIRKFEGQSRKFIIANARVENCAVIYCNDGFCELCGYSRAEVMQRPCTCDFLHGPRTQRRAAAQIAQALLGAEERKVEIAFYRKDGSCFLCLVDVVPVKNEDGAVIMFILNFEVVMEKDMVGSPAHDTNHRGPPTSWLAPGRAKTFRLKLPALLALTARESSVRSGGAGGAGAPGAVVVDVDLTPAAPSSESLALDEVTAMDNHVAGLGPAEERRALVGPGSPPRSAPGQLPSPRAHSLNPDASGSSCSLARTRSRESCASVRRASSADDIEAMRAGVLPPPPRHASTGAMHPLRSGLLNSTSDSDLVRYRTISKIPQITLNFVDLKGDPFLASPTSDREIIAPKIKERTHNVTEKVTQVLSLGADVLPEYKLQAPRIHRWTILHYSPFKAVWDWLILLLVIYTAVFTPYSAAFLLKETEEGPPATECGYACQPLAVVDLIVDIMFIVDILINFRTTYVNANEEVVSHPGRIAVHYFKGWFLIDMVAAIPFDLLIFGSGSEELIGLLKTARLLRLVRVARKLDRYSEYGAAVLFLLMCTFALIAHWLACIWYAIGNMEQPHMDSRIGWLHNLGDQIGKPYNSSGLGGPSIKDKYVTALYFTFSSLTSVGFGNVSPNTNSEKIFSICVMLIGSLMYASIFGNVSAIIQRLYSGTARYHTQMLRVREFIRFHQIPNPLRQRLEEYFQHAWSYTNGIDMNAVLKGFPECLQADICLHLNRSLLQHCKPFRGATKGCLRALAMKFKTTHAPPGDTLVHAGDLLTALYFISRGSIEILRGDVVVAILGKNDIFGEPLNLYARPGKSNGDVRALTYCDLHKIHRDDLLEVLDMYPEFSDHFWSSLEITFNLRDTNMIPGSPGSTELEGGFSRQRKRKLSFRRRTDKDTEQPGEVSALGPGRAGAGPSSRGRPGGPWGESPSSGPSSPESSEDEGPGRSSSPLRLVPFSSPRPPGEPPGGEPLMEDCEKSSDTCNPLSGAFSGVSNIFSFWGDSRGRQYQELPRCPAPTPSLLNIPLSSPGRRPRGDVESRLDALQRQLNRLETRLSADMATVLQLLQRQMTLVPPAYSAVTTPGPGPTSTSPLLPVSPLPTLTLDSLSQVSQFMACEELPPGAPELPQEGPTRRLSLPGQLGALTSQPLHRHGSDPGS

| Compound | inhibition at 3 µM (hERG potassium channel) [%] | IC50 (hERG potassium channel) [nM] | IC50 (MCH R1) [nM] |
| --- | --- | --- | --- |
| COc1cc(-n2cnc3cc(-c4ccc(Cl)cc4)sc3c2=O)ccc1OCCN1CC[C@H](O)C1 [Comparison Example 1] | 62 | 2000 | – |
| COc1cc(-n2cnc3cc(-c4ccc(Cl)cc4)sc3c2=O)ccc1OCCN1CC[C@@H](O)C1 [Comparison Example 2] | 90 | – | – |
| COc1cc(-n2cnc3cc(-c4ccc(Cl)cc4)sc3c2=O)ccc1OCCCN1CC[C@@H](O)C1 [Comparison Example 3] | 84 | – | – |
| COc1cc(-n2cnc3cc(-c4ccc(Cl)cc4)sc3c2=O)ccc1N1CC[C@@H](O)C1 [Example 1, 6-(4-chlorophenyl)-3-{4-[(3R)-3-hydroxypyrrolidin-1-yl]-3-methoxyphenyl}thieno[3,2-d]pyrimidin-4(3H)-one] | – | – | 2.51 |
| COc1cc(-n2cnc3cc(-c4ccc(Cl)cc4)sc3c2=O)ccc1N1CC[C@H](O)C1 [Example 4, 6-(4-chlorophenyl)-3-{4-[(3S)-3-hydroxypyrrolidin-1-yl]-3-methoxyphenyl}thieno[3,2-d]pyrimidin-4(3H)-one] | – | – | 2 |

From US20070078125A1, “Arylamine mch r1 antagonists” (GLAXO GROUP LIMITED, priority 2003, published 2007)
